Measurements taken from patent publication US9884040B2, “Desethylamiodarone for use in cancer treatment” (PÉCSI TUDOMÁNYEGYETEM, priority 2015, dated 2018).

What was measured:
[1] = system: A549 (human lung adenocarcinoma epithelial) cells; assay: MTT cell viability assay, A549; assay type: cell-based; conditions: increasing concentrations, 24 and 48 h
Method: (§1) The cells were seeded into 96-well plates at a starting density of 10^4 cells per well and cultured overnight before DEA was added to the medium for 24 h and 48 h. The medium was changed to a fresh one containing 0.5% of 3-[4,5-dimethylthiazol-2-yl]-2,5-diphenyl-tetrazolium bromide (MTT+) for an additional 3 hours, then the MTT+ reaction was terminated by adding HCl to 10 mM final concentration. The amount of blue formazan dye formed from MTT+ was proportional to the number of live cells, and was determined with an Anthos Labtech 2010 ELISA reader at 550 nm. All experiments were run in at least 4 replicates and repeated 3 times.
The effect of desethylamiodarone was measured in T24 (human urinary bladder carcinoma), A549 (human lung adenocarcinoma epithelial), B16F10 (mice melanoma), HeLa (human cervix adenocarcinoma), 4T1 (mouse mammary carcinoma) cell lines. Cells were treated with increasing concentrations of desethylamiodarone for 24 and 48 h. Cell growth was assessed by measuring metabolic activity, which reflects viability in the MTT-test in the course of 24 h, 48 h of continued exposure to desethylamiorarone. The untreated cells served as negative controls. The viability of the cells, was lower in all DEA-treated than in the control group, with the difference being statistically significant.

[2] = system: DU-145 prostate cancer cell line; assay: MTT cell viability assay, DU-145; assay type: cell-based; conditions: increasing concentrations, 24, 48 and 72 hours
Method: as §1
145 cells were exposed to increasing concentrations of DEA for 24, 48 and 72 hours. Viability of the cells was detected by the MTT method. Untreated cells served as controls.

[3] = system: T24/83 human urinary bladder carcinoma cell line; assay: Colony formation assay, T24; assay type: cell-based; conditions: 7 days; 500 nM-3 μM
Method: (§2) Cells were trypsinized and plated in triplicate into 6-well plates at 500 cells/well. Cells were treated with different concentration of Dea. After 7 days of incubation, cells were washed and stained with Coomassie-blue, and the colonies containing more than 50 cells were counted. The number of colonies were determined and normalized to the number of colonies in controls.
To assess the recovery ability of cells that survived treatment, long-term (7 days) colony formation assay was performed.
Untreated cells served as controls. The results are mean±SEM of 3 independent experiments performed in at least quadruplicate. p<0.01 compared to the corresponding control group. The data shown on FIG. 5 provide evidence that DEA can be useful to treat bladder cancer.

[4] = system: B16F10 mice melanoma cell line; assay: Colony formation assay, B16F10; assay type: cell-based; conditions: one week; 1, 1.5, 2, 2.5 or 3 μM
Method: Cells were trypsinized and plated in triplicate into 6-well plates at 500 cells/well. Cells were treated with different concentration of Dea. After 7 days of incubation, cells were washed and stained with Coomassie-blue, and the colonies containing more than 50 cells were counted. The number of colonies were determined and normalized to the number of colonies in controls. To assess the recovery ability of cells that survived treatment, long-term (7 days) colony formation assay was performed. […] B16F10 cells were incubated with the indicated concentrations of desethylamiodarone (1, 1.5, 2, 2.5 or 3 μM for one week and cell colonies were fixed, stained and counted. (A-B) Data are expressed as the mean±SD of ≧3 experiments; a p<0.01 is considered statistically significant. The data shown on FIG. 6 provide evidence that DEA can be useful to treat melanoma.

[5] = system: HeLa human cervix adenocarcinoma cell line; assay: Colony formation assay, HeLa; assay type: cell-based; conditions: one week; 1, 1.5, 2, 2.5 or 3 μM
Method: Cells were trypsinized and plated in triplicate into 6-well plates at 500 cells/well. Cells were treated with different concentration of Dea. After 7 days of incubation, cells were washed and stained with Coomassie-blue, and the colonies containing more than 50 cells were counted. The number of colonies were determined and normalized to the number of colonies in controls. To assess the recovery ability of cells that survived treatment, long-term (7 days) colony formation assay was performed. […] HeLa cells were incubated with the indicated concentrations of desethylamiodarone (1, 1.5, 2, 2.5 or 3 μM for one week and cell colonies were fixed, stained and counted. (A-B) Data are expressed as the mean±SD of ≧3 experiments; a p<0.01 is considered statistically significant The data shown on FIG. 8 provide evidence that DEA can be useful to cervix carcinoma.

[6] = system: 4T1 (mouse mammary carcinoma) cells; assay: Colony formation assay, 4T1; assay type: cell-based; conditions: one week following treatment
Description: Desethylamiodarone (DEA) is the main metabolite of the widely used anti-arrhythmic drug amiodarone. DEA also has antiarrhythmic activity in clinical relevant concentration. […] (27, 28, 29, 30) DEA accumulates rapidly in the lungs. […] Here, we checked whether Desethylamiodarone can affect invasion, migration of cancer cells. First of all, we initially checked whether desethylamiodarone has effect on the viability of T24 (human urinary bladder carcinoma), B16F10 (mice melanoma), 4T1 (mouse mammary carcinoma) cells using MTT assay. As shown in FIG. 1-3 Desethylamiodarone had significant cytotoxic activity in very low concentrations. To assess the recovery ability of cells that survived treatment, long-term (7 days) colony formation assay was performed.
as §2

[7] = system: p42/44 mitogen-activated protein kinase (MAPK) (ERK1/2); assay: Western blot of ERK phosphorylation; assay type: cell-based, human; conditions: 5-10-15 μM, 6 hours; T24, B16F10 cell lines
Method: 10^6 cells were seeded into regular plates and treated as for the cell viability assay. Cells were harvested at intervals in a chilled lysis buffer containing 0.5 mM sodium-metavanadate, 1 mM ethylenediaminetetraacetic acid (EDTA) and protease inhibitor cocktail in phosphate-buffered saline (PBS). Probes were boiled and subjected to 10% sodium dodecyl sulphate polyacrylamide gel electrophoresis then transferred to nitrocellulose membranes. The membranes were blocked in 5% low fat milk for 1.5 h at room temperature then exposed to primary antibodies at 4° C. overnight in blocking solution. Appropriate horseradish peroxidase-conjugated secondary antibodies were used at a 1:5000 dilution (anti-mouse and anti-rabbit IgGs; Sigma-Aldrich, Steinheim, Germany) and visualized by enhanced chemiluminescence (Amersham Biosciences, Piscataway, N.J., USA). All experiments were repeated 3 times.
To determine the downstream consequences of DEA treatment, we examined the phosphorylation status of AKT (protein kinase B), GSK-3β and p42/44 mitogen-activated protein kinase (MAPK) (ERK1/2) by immunoblotting in T24 (human urinary bladder carcinoma), B16F10 (mice melanoma) cell lines. Cells were cultured in the presence of 5-10-15 μM DEA for 6 hours. The cells were prepared and western blot analysis was carried out to perform both phosphorylated and non-phosphorylated forms of the previously listed proteins. […]

[8] = cited from earlier work
[9] = repetitive exposures; cited from earlier work

## CCCCc1oc2ccccc2c1C(=O)c1cc(I)c(OCCNCC)c(I)c1 [DEA, (2-butyl-3-benzofuranyl)[4-[2-(ethylamino)ethoxy]-3,5-diiodophenyl]-methanone]
[1]
  Viability of A549 cells (MTT): significantly inhibited the viability
[2]
  Viability of DU-145 cells (MTT): induces cell death
[3]
  Colony formation, T24: significant decrease in the number and the size of colonies
[4]
  Colony formation, B16F10: significant decrease in the number and the size of colonies
[5]
  Colony formation, HeLa: significant decrease in the number and the size of colonies
[6]
  Colony formation, 4T1: significant decrease in the number and the size of colonies
[7]
  ERK phosphorylation: a decrease in its phosphorylation
[8]
  Plasma protein binding: strongly bound to plasma proteins
[9]
  Drug accumulation in cell cultures: always higher than that of AM
